Results published in ChEMBL document CHEMBL3112412, “Synthesis and receptor binding studies of some new arylcarboxamide derivatives as sigma-1 ligands” (Bioorg Med Chem Lett, 2014).

What was measured:
[1] = Displacement of [3H]-DTG from sigma 2 receptor in guinea pig brain after 120 mins by liquid scintillation counting; parameters: species or system Cavia porcellus
[2] = Selectivity ratio of Ki for sigma 2 receptor in guinea pig brain to Ki for sigma 1 receptor in rat liver homogenate; type: tissue-based
[3] = biological target: Sigma non-opioid intracellular receptor 1 (Rattus norvegicus, UniProt Q9R0C9); assay: Displacement of [3H](+)-pentazocine from sigma 1 receptor in rat liver homogenate after 120 mins by liquid scintillation counting; type: tissue-based
Sequence of Sigma non-opioid intracellular receptor 1 (Q9R0C9 whole entry): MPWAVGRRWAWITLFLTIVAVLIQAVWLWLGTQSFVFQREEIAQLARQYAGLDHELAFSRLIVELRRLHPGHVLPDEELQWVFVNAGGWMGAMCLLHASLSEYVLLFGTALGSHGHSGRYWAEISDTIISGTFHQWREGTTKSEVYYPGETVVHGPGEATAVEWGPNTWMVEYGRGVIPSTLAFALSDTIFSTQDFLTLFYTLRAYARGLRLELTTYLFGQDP

SMILES	Ki [1] [nM]	Ratio Ki [2]	Ki [3] [nM]
CCN(CC1CCN(Cc2ccccc2)CC1)C(=O)c1cccc2ccccc12	> 1000	> 6	161
CCN(CC1CCN(Cc2ccc(Cl)cc2)CC1)C(=O)c1cccc2ccccc12	> 1000	> 4	215
CCN(CC1CCN(Cc2ccc(Cl)cc2)CC1)C(=O)c1ccc(-c2ccccc2)cc1			373
CCN(CC1CCN(Cc2ccccc2)CC1)C(=O)c1ccc(OC)cc1			192
CCN(CC1CCN(Cc2ccc(Cl)cc2)CC1)C(=O)c1ccc2ccccc2c1			225
CCN(CC1CCN(Cc2ccc(Cl)cc2)CC1)C(=O)c1ccc(OC)cc1	283	1.3	217
CCN(CC1CCN(Cc2ccc(Cl)cc2)CC1)C(=O)c1ccccc1			155
CCN(CC1CCN(Cc2ccccc2)CC1)C(=O)c1ccc2ccccc2c1	270	1.36	198
CCN(CC1CCN(Cc2ccccc2)CC1)C(=O)c1ccc(-c2ccccc2)cc1	> 500	> 1	301
CCN(CC1CCN(Cc2ccccc2)CC1)C(=O)c1ccc(C)cc1	> 500	> 3	160

Stronger by Ki [3], values ahead:

Ki [1] [nM]	Ratio Ki [2]	Ki [3] [nM]	SMILES
> 500	> 3	140	CCN(CC1CCN(Cc2ccc(Cl)cc2)CC1)C(=O)c1ccc(C)cc1
> 1000	> 11	91	CCN(CC1CCN(Cc2ccc(Cl)cc2)CC1)C(=O)c1ccc(Cl)cc1
		66.8	CCN(CC1CCN(Cc2ccccc2)CC1)C(=O)c1ccccc1
> 1000	> 17	59.1	CCN(CC1CCN(Cc2ccccc2)CC1)C(=O)c1ccc(Cl)cc1
> 3000	> 140	21.2	CCN(CC1CCN(Cc2ccccc2)CC1)C(=O)c1ccco1
> 500	> 40	13.6	CCN(CC1CCN(Cc2ccc(Cl)cc2)CC1)C(=O)c1ccco1
